The source of these data is PubChem BioAssay (NCI).

“And” between values parts separate entries of the source, which are not always exact repeats. Identical values can stand only once.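 48-hour exposure; five concentrations; linearly interpolated endpoints. The concentration for 50% growth inhibition is given as GI50. TGI: total growth inhibition.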 Bounds are passed on as bounds.

Test in all cases: inhibition of tumour cell growth, NCI panel, 48 h
The test system of experiment [1] is CCRF-CEM leukemia.
Experiment [2] relates to PC-3 prostate.
The subject of experiment [3] is RPMI-8226 leukemia.
Experiment [4] deals with EKVX NSCLC.
Experiment [5] concerns BT-549 breast.
Experiment [6] concerns SNB-19 CNS.
Experiment [7] deals with U251 CNS.
The subject of experiment [8] is UACC-257 melanoma.
Experiment [9] deals with OVCAR-4 ovarian.
In experiment [10] the test system is KM12 colon.

In the case of `COc1cc(C(=O)O[C@H](C(=O)NCCCCNC(=O)[C@@H](OC(=O)c2cc(OC)cc3c(C)cccc23)[C@]2(C)CO2)[C@]2(C)CO2)c2cccc(C)c2c1`, the GI50 in experiment [1] is under 10 nM; in experiment [2], 114 nM; in experiment [3], 195 nM; in experiment [4], 227 nM; in experiment [5] it was 305 nM; in experiment [6], 201 nM. In addition, the GI50 was under 10 nM in [7], 218 nM in experiment [9] and 139 nM in experiment [10]. The TGI in experiment [1] is over 100 µM; in [2], 1.5 µM; in experiment [3] it was 3.86 µM; in experiment [4], 2.57 µM; in [5], 5.53 µM; in experiment [6], 2.31 µM. In addition, the TGI in experiment [7] amounted to 0.107 µM; in experiment [8], 0.222 µM; in [9] it was 2.08 µM; in experiment [10] it was 0.802 µM.
On to `CNc1cc(-c2cccc(OC(F)(F)F)c2)nc2ccc(N3CCCC3)cc12`, for which the GI50 in [1] is 2020 nM and 1960 nM and 1760 nM; in experiment [2], 1460 nM and 1610 nM and 1500 nM; in experiment [3] it was 1710 nM; in experiment [4], 1640 nM and 1570 nM and 1740 nM; in experiment [5] it was 2140 nM and 1940 nM and 1790 nM; in [6], 1900 nM and 1810 nM and 1880 nM. Besides, the GI50 was 1580 nM and 1690 nM and 1670 nM in experiment [7]; 1890 nM and 1770 nM and 1860 nM in experiment [8]; 1630 nM and 1690 nM and 1750 nM in [9]; 1810 nM and 1760 nM and 1890 nM in [10]. Also, the TGI in experiment [1] is 4.52 µM and 4.49 µM and 4.01 µM; in experiment [2], 2.95 µM and 3.1 µM and 3.01 µM; in experiment [3], 4.19 µM; in experiment [4], 3.43 µM and 3.06 µM and 3.42 µM; in [5], 6.17 µM and 3.65 µM and 3.33 µM; in experiment [6], 3.57 µM and 3.22 µM and 3.36 µM. For the same compound, the TGI is 3.07 µM and 3.08 µM and 3.11 µM in [7]; 3.37 µM and 3.16 µM and 3.34 µM in [8]; 3.33 µM and 3.19 µM and 3.36 µM in [9]; 3.4 µM and 3.35 µM and 3.51 µM in experiment [10].
`COc1cc(C(=O)n2nc(N)c3c(C)cc(C)nc32)cc(OC)c1OC`: the GI50 is over 89200 nM in experiment [1]; over 100000 nM in experiment [2]; over 82100 nM in experiment [3]; over 100000 nM in [5]; over 100000 nM in [6]; over 82900 nM in experiment [7]. Moreover, the GI50 in experiment [8] was over 100000 nM; in [9], over 100000 nM; in experiment [10] it was 10400 nM. For the same compound, the TGI in [1], in [2], in experiment [3], in experiment [5], in [6] and in experiment [7] was over 100 µM in each case. Further, the TGI in [8], in experiment [9] and in experiment [10] was over 100 µM in each case.
For `FC(F)(F)c1cccc(-c2[nH]ncc2-c2nnnn2-c2ccccc2)c1`, the GI50 in experiment [1] was 5300 nM; in experiment [2], 6300 nM; in experiment [3], 3120 nM; in [4], 8430 nM; in experiment [5], 3780 nM; in experiment [7] it was 4690 nM. Also, the GI50 was 11400 nM in experiment [8], 11700 nM in experiment [9] and 4080 nM in experiment [10]. Further, the TGI turned out to be 22.9 µM in [1]; 51.2 µM in [2]; 13.3 µM in experiment [3]; 29.7 µM in experiment [4]; 13.9 µM in [5]; 17.1 µM in experiment [7]. In addition, the TGI in experiment [8] worked out at 33.9 µM; in experiment [9], 28.8 µM; in experiment [10], 22.2 µM.
For the compound `CC(C)(C)[Si](C)(C)OC1[C@@H](COC(=O)NC(=O)CCl)O[C@@H](n2cnc3c(N)ncnc32)[C@H]1O[Si](C)(C)C(C)(C)C` (some centres not stated), the GI50 in experiment [1] was 232 nM; in experiment [2], 3150 nM; in experiment [3], 1540 nM; in experiment [5] it was 922 nM; in experiment [6], 7610 nM; in [7] it was 2840 nM. Besides, the GI50 is 6980 nM in experiment [8], 3890 nM in [9] and 2550 nM in experiment [10]. In addition, the TGI in experiment [1] stood at 0.931 µM; in experiment [2], 9.79 µM; in experiment [3], 5.63 µM; in experiment [5] it was 1.85 µM; in experiment [6], 14.7 µM; in [7], 7.91 µM. The values for the TGI in experiment [8], in experiment [9] and in experiment [10] were 13.8 µM, 10.7 µM and 6.48 µM, respectively.
Consider `O=C1NC(=NCCc2ccc(Br)cc2)S/C1=C\c1ccc2ncccc2c1`, for which the GI50 is 21100 nM in experiment [1]; over 25000 nM in [2]; over 25000 nM in experiment [3]; over 21600 nM in experiment [5]; over 25000 nM in experiment [6]; over 18900 nM in experiment [7]. The figures for the GI50 in experiment [8], in experiment [9] and in experiment [10] were over 25000 nM, 10500 nM and 24600 nM, respectively. Also, the TGI in experiment [1], in experiment [2], in experiment [3], in [5], in experiment [6] and in [7] was over 25 µM in each case. For the same compound, the TGI in experiment [8], in [9] and in experiment [10] was over 25 µM throughout.
Regarding `CCC(=O)Nc1nnc(Cc2ccc(OC)c(OC)c2)s1`, the GI50 in experiment [1], in [2], in experiment [3], in [5], in experiment [6] and in experiment [7] was over 100000 nM in each case. Also, the GI50 in [8], in experiment [9] and in experiment [10] was over 100000 nM in each case. In addition, the TGI in experiment [1], in experiment [2], in [3], in experiment [5], in experiment [6] and in experiment [7] was over 100 µM each time. The TGI in experiment [8], in experiment [9] and in experiment [10] was over 100 µM in each case.
On to `O=C1/C(=C/c2ccc([N+](=O)[O-])o2)Oc2ccc(Cl)cc21`, for which the GI50 in [1] was 429 nM; in [2] it was 1920 nM; in experiment [3], 1370 nM; in experiment [5] it was 1670 nM; in [6] it was 3940 nM; in experiment [7], 2020 nM. For the same compound, the results for the GI50 in experiment [8], in [9] and in [10] were 1850 nM, 1900 nM and 1880 nM, respectively. The TGI worked out at 2.24 µM in [1]; 5.08 µM in experiment [2]; 4.72 µM in experiment [3]; 3.32 µM in [5]; 16.7 µM in experiment [6]; 4.52 µM in experiment [7]. In addition, the TGI in [8] is 4.12 µM; in [9], 3.68 µM; in experiment [10], 3.68 µM.
